Patent US6682908B1, “Mouse growth hormone secretagogue receptor” (Merck & Co., Inc., priority 1998, dated 2004)

Target: T1, mouse GHS-R (Mus musculus, UniProt Q99P50)
T1 construct: the complete and contiguous open reading frame of mGHS-R; expressed in transfected cells; host or cells: 293-AEQ17 (aequorin-expressing reporter cell line), transiently transfected with pcDNA-3/mouse GHS-R
Test: aequorin bioluminescence assay of mouse GHS-R expressed in 293-AEQ17 cells
Type: cell-based
Settings: expression of the complete and contiguous open reading frame of mGHS-R; aequorin biolumenescence assay
Procedure: The mouse isoform of the previously identified GHS-R was cloned from two genomic DNA libraries for the generation of a GHS-R knock-out mouse.
The cells were harvested, washed once in ECB medium and resuspended to 500,000 cells/ml. One hundred (100) […] of cell suspension (corresponding to 5×10^4 cells) was then injected into each well of a 96-well microtiter test plate, and the integrated light emission was recorded over 30 seconds, in 0.5 second units. Twenty (20) μl of lysis buffer (0.1% final Triton X-100 concentration) was then injected and the integrated light emission recorded over 10 seconds, in 0.5 second units. The “fractional response” values for each well were calculated by taking the ratio of the integrated response to the initial challenge to the total integrated luminescence including the Triton X-100 lysis response. Data were analyzed using GraphPad Prism software V.2.0 (GraphPad Software, San Diego, Calif.).

T1 sequence (Q99P50 whole entry): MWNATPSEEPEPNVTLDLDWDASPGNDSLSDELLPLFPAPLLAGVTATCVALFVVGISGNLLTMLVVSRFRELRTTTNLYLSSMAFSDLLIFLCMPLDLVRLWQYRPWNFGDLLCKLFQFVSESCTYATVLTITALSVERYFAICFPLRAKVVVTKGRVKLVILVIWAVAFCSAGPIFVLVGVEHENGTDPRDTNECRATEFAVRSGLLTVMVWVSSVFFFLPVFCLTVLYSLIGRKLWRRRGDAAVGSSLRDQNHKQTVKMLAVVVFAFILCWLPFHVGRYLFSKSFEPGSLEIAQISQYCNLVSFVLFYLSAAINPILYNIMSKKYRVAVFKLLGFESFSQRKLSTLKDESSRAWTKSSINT

Compound | functional activation of mGHS-R
CC(C)(N)C(=O)N[C@H](COCc1ccccc1)C(=O)N1CCC2(CC1)CN(S(C)(=O)=O)c1ccccc12 [MK-0677] | functionally activated
GHRP-6 | functionally activated
